US20220323411A1, “COMPOSITIONS FOR THE TREATMENT OF SOLID TUMORS” (Raziel Therapeutics Ltd., priority 2019, published 2022)
Marks after values point to notes of the source that are not given here.

Key:
A549 cells [1] = assay: Xenograft Study 2: A549 subcutaneous tumors in nude mice, intratumoral injection; assay type: in vivo
Protocol: A549 cells were injected subcutaneously to nude mice and allowed to grow to an estimated tumor volume of about 300 mm^3 as determined by caliper. The mice were divided into three groups (N=10 per group), dosed three times via intratumoral injection with either a vehicle (comprising water for injection, benzyl alcohol, propylene glycol, and Tween-80) or with 5 mg of […])-N,N,N-trimethylpentan-1-aminium chloride, or not injected at all, according to the experimental design shown in Table 3 below:
For three weeks post-injection, tumor size was determined by caliper and tumor volume was calculated. Median tumor volumes for the various cohorts are summarized in Table 4 below and graphically in FIG. 3 (arrows indicate treatment days), while the mice's change in body weight is summarized in FIG. 4.

A549 cells [2] = assay: Xenograft Study 1: A549 subcutaneous tumors in nude mice, intratumoral injection; assay type: in vivo; conditions: for Tumor volume 3 weeks after injection (mm^3 ± S.E.M.): first dose day 25, double dose day 32, mean, N=10, initial volume 496; for Reduction in tumor volume vs. vehicle (%): 3 weeks after injection
Protocol: A549 cells were injected subcutaneously to nude mice and allowed to grow to an estimated tumor volume of about 500 mm^3 as determined by caliper. The mice were divided into four groups (N=10 per group), dosed twice via intratumoral injection with either a vehicle (comprising water for injection, benzyl alcohol, propylene glycol, and Tween-80) or with 1 mg, 2.5 mg, or 5 mg of 5-(3, 6-dibromo-9H-carbazol-9-yl)-N,N,N-trimethylpentan-1-aminium chloride according to the experimental design shown in Table 1 below:
For three weeks post-injection, tumor size was determined by caliper and tumor volume was calculated. Mean tumor volumes for the various cohorts are summarized in Table 2 below and graphically in FIG. 1 (arrows indicate treatment days), while the mice's change in body weight is summarized in FIG. 2.

[3] = 5 mg intratumoral, dosed three times

For `C[N+](C)(C)CCCCCn1c2ccc(Br)cc2c2cc(Br)ccc21` [Test Compound, 5-(3,6-dibromo-9H-carbazol-9-yl)-N,N,N-trimethylpentan-1-aminium chloride], the “Effect on mouse body weight” value (A549 cells [1]; [3]) was “did not affect mouse body weight”, the “Effect on tumor size” value (A549 cells [1]; [3]) was “significantly reduced tumor size” and the “Reduction in tumor volume vs. non-injected group (%)” value (A549 cells [1]; 5 mg/mouse intratumoral once a week for 3 weeks, P-value vs. non-injected group 0.02) was 46* %. The Tumor volume 3 weeks after injection (median) (A549 cells [1]; 5 mg/mouse intratumoral once a week for 3 weeks, median, N=10, initial volume 287) was 648 mm³, the “Tumor volume 3 weeks after injection (mm^3 ± S.E.M.)” value (A549 cells [2]; 1 mg/mouse intratumoral) was 1753 (±80) mm^3 and the “Reduction in tumor volume vs. vehicle (%)” value (A549 cells [2]; 1 mg/mouse intratumoral, P-value vs. vehicle 0.86) was 7.7%. The “Tumor volume 3 weeks after injection (mm^3 ± S.E.M.)” value (A549 cells [2]; 2.5 mg/mouse intratumoral) was 1512 (±149) mm^3, the “Reduction in tumor volume vs. vehicle (%)” value (A549 cells [2]; 2.5 mg/mouse intratumoral, P-value vs. vehicle 0.17) was 20.4% and the “Effect on mouse body weight” value (A549 cells [2]; 5 mg intratumoral, dosed twice) was “did not affect mouse body weight”. The “Effect on tumor size” value (A549 cells [2]; 5 mg intratumoral, dosed twice) was “significantly reduced tumor size”, the “Tumor volume 3 weeks after injection (mm^3 ± S.E.M.)” value (A549 cells [2]; 5 mg/mouse intratumoral) was 1309 (±229) mm^3 and the “Reduction in tumor volume vs. vehicle (%)” value (A549 cells [2]; 5 mg/mouse intratumoral, P-value vs. vehicle 0.03) was 31.1* %.
